According to patent US20040024033A1 (priority 1998, published 2004):
Where two headings read alike, the source gives them in different places.

Legend:
[1] = tested on: human HCT-15 colon carcinoma; assay type: in vivo, female BALB/c nude mice; conditions: 4 mg/kg, i.v. once on day 14
Description: Female or male BALB/c nu/nu (nude) mice are kept under sterile conditions (10 to 12 mice per Type III cage) with free access to food and water. Mice weigh between 20 and 25 grams at the time of tumor implantation. Tumors are established by subcutaneous injection of cells (minimum 2×10^6 cells in 100 μl PBS or medium) in carrier mice (4-8 mice per cell line). The resulting tumors are serially passaged for a minimum of three consecutive transplantations prior to start of treatment. Tumor fragments (approx. 25 mg) are implanted s.c. into the left flank of animals with a 13-gauge trocar needle while the mice are exposed to Forene (Abbott, Switzerland) anesthesia.
Tumor growth and body weights are monitored once or twice weekly. All treatments are administered intravenously (i.v.) and are initiated when a mean tumor volume of approximately 100 to 250 mm^3 is attained, depending upon the tumor type. Tumor volumes are determined using the formula […] (see Cancer Chemother. Pharmacol. 24:148-154, [1989]). Treatments with epothilone B vary the dose and the frequency of administration. Comparator agents are administered according to previously determined optimal treatment regimens. In addition to presenting changes in tumor volumes over the course of treatment, antitumor activity is expressed as T/C% (mean increase of tumor volumes of treated animals divided by the mean increase of tumor volumes of control animals multiplied by 100). Tumor regression (%) represents the smallest mean tumor volume compared to the mean tumor volume at the start of treatment, according to the formula Regression (%)=(1−Vend/Vstart)×100 (Vend=final mean tumor volume, Vstart=mean tumor volume at the start of treatment. Any animals in which the tumor has reached a size exceeding approximately 1.5 to 2.5 cm^3 are sacrificed. Details can be found below.
Tumor fragments of approximately 25 mg are implanted into the left flank of each female nude mouse (n=8 per group). Treatments are started on day 14 after tumor transplantation. Epothilone B is administered once at 4 mg/kg, i.v. on day 14.5-Fluorouracil is administered at 75 mg/kg, i.v., on days 14 and 21. TAXOL® is administered i.v. at 20 mg/kg/day, every second day for 5 treatments (days 14, 16, 18, 20 and 22). Antitumor activity is expressed as T/C% (mean increase of tumor volumes of treated animals divided by the mean increase of tumor volumes of control animals multiplied by 100). Tumor regression (%) represents the final mean tumor volume compares to the mean tumor volume at the start of treatment. Δ Tumor volumes represent the tumor volume on the last treatment day minus the tumor volume on the first treatment day. Statistical analyses on Δ tumor volumes uses Dunnett's test to compare treatment groups to controls. Statistical analyses on body weight changes uses paired t-tests comparing body weights before treatment to those at the end of treatment; mice weigh ˜20-25 g at the start of treatment. Not significant is indicated by the abbreviation ,ns”. Data presented are means±SEM from animals surviving to the end of the experiment.

[2] = tested on: A549 non small cell lung tumors
Description: 3-10 million cells are implanted s.c. into the right axillary (lateral) region of outbred athymic (nu/nu) mice, and are allowed to grow until a tumor volume of approximately 100 mm^3 is established. Epothilone B is formulated in 1% DMSO in 5% glucose in distilled water (D5W), and administered i.v. either once only, once per week, 3 times per week, or 5 times per week. Positive controls are carried out with clinical formulations of TAXOL® diluted 6 fold with D5W and administered i.v. 3×/week.
Antitumor activity is expressed as % T/C (comparing Δ tumor volumes for treatment group to vehicle control group) at the end of the experiment. Regressions are calculated using the formula: −(T/T0−1)×100% , where T is the tumor volume for the treatment group at the end of the experiment, and T0 is the tumor volume at the beginning of the experiment. Statistical significance is evaluated using a one-tailed Student's t-test.
Treatments are started on day 16 post implantation (10 million cells/animal). Epothilone B is administered i.v. once at 6 mg/kg (day 16), once weekly at 4 mg/kg (days 16, 23, and 30), three times per week at 1.5 mg/kg (days 16, 18, 21, 23, 25, 28, 30, 32, and 35), or five times per week at 0.5 mg/kg (days 16-18, 21-25, 28-32, and 35-36). TAXOL® is administered i.v. three times per week at 20 mg/kg (days 16, 18, 21, 23, 25, 28, 30, 32, and 35) as split doses of 10 mg/kg given one hour apart. Vehicle control (1% DMSO/D5W) is administered i.v. three times per week (days 16, 18, 21, 23, 25, 28, 30, 32, and 35). All final data are recorded on day 37. A single asterisk (*) indicates p<0.05, and a double asterisk (**) indicates p<0.01, using a one-tailed Student's t-Test.

[3] = Determination of the single i.v. dose MTD in normal mice; assay type: in vivo, normal female BALB/c mice; conditions: for Body Weight Δ: mean ± SD
Description: For the MTD determination, female BALB/c nude mice or BALB/c mice (obtained from Novartis Animal Farm, Sisseln, Switzerland) are treated once intravenously with epothilone B (n=3 per dose group). The dosage is increased (2, 4, 6, 8, 10 and 12 mg/kg) and the mice are observed for the presentation of overt toxic effects for 10 days after drug treatment.
Epothilone B is given as a single i.v. bolus dose at 2, 4, 6, 8, 10 or 12 mg/kg. Survival and body weights of the mice are monitored daily. Changes (Δ) in body weights are determined comparing the last measured body weight to that before treatment.

[4] = tested on: human PC-3M prostate carcinoma cells; test: Antitumor effect against orthotopically injected PC-3M cells; assay type: in vivo, male BALB/c nude mice
Description: Human prostate carcinoma PC-3M cells (1×10^6 cells per 20 μl phosphate buffered saline) are injected into the left […] of the prostate of each animal (n=6-9/group) according the method previously described (see Stephenson et al., J. Natl. Cancer Inst. 84, 951-7 (1992)). Treatment is started on day 14 after cell injection. At this time point a mean tumor weight of ˜20 mg is established. Epothilone B is administered either once or once weekly. Mice are sacrificed 42 days post tumor inoculation, and the prostates are carefully removed, dissected free of adhering tissue and weighed. […] Mesenteric lymph nodes are examined for the presence of metastases, dissected free of adhering tissue and weighed.
Tumor weight and body weights are monitored once or twice weekly. All treatments are administered intravenously (i.v.) and are initiated 14 days post cell injection. Treatment with epothilone B varies the dose and frequency of administration. Antitumor activity is expressed as T/C% (mean tumor weight of treated animals divided by the mean tumor weight of control animals multiplied by 100).
1×10^6 PC-3M cells in 20 μL of PBS are injected into the […] of the prostate of each male nude mouse (n=9 per group). Treatments are started on day 14 after tumor cell injection. epothilone B is administered i.v., once at 6 or 8 mg/kg, or once per week at 4 or 5 mg/kg. Antitumor activity is expressed as T/C% (mean tumor weight of treated animals divided by the mean of tumor weight of control animals multiplied by 100). Differences in body weights consider only animals surviving to the end of the experiment (day 42). Statistical analyses on A body weight uses paired t-tests comparing body weights before treatment to the end of treatment; mice weigh˜20-25 g at the start of treatment. Not significant is indicated by the abbreviation ,ns”.

[5] = Experiment 1, 6 mg/kg single i.v. bolus
[6] = Experiment 1, 8 mg/kg single i.v. bolus
[7] = Experiment 1, 10 mg/kg single i.v. bolus
[8] = Experiment 1, 12 mg/kg single i.v. bolus
[9] = Experiment 2, 2 mg/kg single i.v. bolus
[10] = Experiment 2, 4 mg/kg single i.v. bolus
[11] = Experiment 2, 6 mg/kg single i.v. bolus
[12] = Experiment 2, 8 mg/kg single i.v. bolus

## C/C(=C\c1csc(C)n1)[C@@H]1C[C@@H]2O[C@]2(C)CCC[C@H](C)[C@H](O)[C@@H](C)C(=O)C(C)(C)[C@@H](O)CC(=O)O1 [epothilone B]
[1]
  % Body Weight Change: 2 ± 2%
  Mortalities due to treatment: No mortalities
  T/C: Regres-
[1]; mean ± SEM
  D Body Weight: 0.4 ± 0.3 g
[2]; 0.5 mg/kg i.v. 5x/week
  body weight loss: 23%
[2]; 1.5 mg/kg i.v. 3x/week
  Dead/Total: all animals have to be euthanatized in the first week of the experiment due to toxicity
[2]; 4 mg/kg i.v. 1x/week
  body weight loss: 13%
[2]; 6 mg/kg i.v. once, day 37
  % Regression: none
  % T/C: 41%
[2]; 6 mg/kg, i.v. once
  Dead/Total: 0/8
[3]; [5]
  Mortalities: 1/3
  Body Weight Δ: -6.1 ± 0.9 g
[3]; [6]
  Mortalities: 3/3
  Body Weight Δ: -5.1 ± 3.2 g
[3]; [7]
  Mortalities: 3/3
  Body Weight Δ: -5.6 ± 0.6 g
[3]; [8]
  Mortalities: 3/3
  Body Weight Δ: -5.4 ± 2.9 g
[3]; [9]
  Mortalities: 0/3
  Body Weight Δ: 2.3 ± 0.6 g
[3]; [10]
  Mortalities: 0/3
  Body Weight Δ: 1.3 ± 0.6 g
[3]; [11]
  Mortalities: 2/3
  Body Weight Δ: -5.3 ± 0.6 g
[3]; [12]
  Mortalities: 3/3
  Body Weight Δ: -5.0 ± 1.0 g
[4]; 4 mg/kg, i.v. once per week
  Δ Body Weight: -1.2 g
[4]; 5 mg/kg, i.v. once per week
  Δ Body Weight: -6.8 g
[4]; 6 mg/kg, i.v. once
  Δ Body Weight: -1.4 g
[4]; 8 mg/kg, i.v. once
  Δ Body Weight: -5.2 g
